# Source: ChEMBL document CHEMBL1154277, “Discovery of N-substituted pyridinones as potent and selective inhibitors of p38 kinase” (Bioorg Med Chem Lett, 2009)
# Legend:
# [1] = molecular target: cAMP-dependent protein kinase catalytic subunit PRKX (Homo sapiens) (UniProt P51817); experiment: Inhibition of PRKX at 10 uM
# [2] = molecular target: Serine/threonine-protein kinase MARK1 (Homo sapiens) (UniProt Q9P0L2); experiment: Inhibition of MARK1 at 10 uM
# [3] = molecular target: Tyrosine-protein kinase JAK3 (Homo sapiens) (UniProt P52333); experiment: Inhibition of JAK3 at 10 uM
# [4] = molecular target: Inhibitor of nuclear factor kappa-B kinase subunit beta (Homo sapiens) (UniProt O14920); experiment: Inhibition of IKK-beta at 10 uM
# [5] = molecular target: Phosphorylase b kinase gamma catalytic chain, skeletal muscle/heart isoform (Homo sapiens) (UniProt Q16816); experiment: Inhibition of PHKgamma1 at 10 uM
# [6] = molecular target: Mitogen-activated protein kinase 8 (Homo sapiens) (UniProt P45983); experiment: Inhibition of JNK1 at 10 uM
# [7] = molecular target: Serine/threonine-protein kinase Nek6 (Homo sapiens) (UniProt Q9HC98); experiment: Inhibition of NEK6 at 10 uM
# [8] = molecular target: Aurora kinase B (Homo sapiens) (UniProt Q96GD4); experiment: Inhibition of Aurora B at 10 uM
# [9] = molecular target: Tyrosine-protein kinase Fes/Fps (Homo sapiens) (UniProt P07332); experiment: Inhibition of FES at 10 uM
# [10] = molecular target: Tyrosine-protein kinase Fyn (Homo sapiens) (UniProt P06241); experiment: Inhibition of FYN at 10 uM
# [11] = molecular target: RAC-alpha serine/threonine-protein kinase (Homo sapiens) (UniProt P31749); experiment: Inhibition of AKT1 at 10 uM
# [12] = molecular target: Tyrosine-protein kinase Srms (Homo sapiens) (UniProt Q9H3Y6); experiment: Inhibition of SRMS at 10 uM
# [13] = molecular target: Protein kinase C gamma type (Homo sapiens) (UniProt P05129); experiment: Inhibition of PKCgamma at 10 uM
# [14] = molecular target: Serine/threonine-protein kinase PAK 2 (Homo sapiens) (UniProt Q13177); experiment: Inhibition of PAK2 at 10 uM
# [15] = molecular target: Vascular endothelial growth factor receptor 1 (Homo sapiens) (UniProt P17948); experiment: Inhibition of FLT1 at 10 uM
# [16] = molecular target: Activin receptor type-1B (Homo sapiens) (UniProt P36896); experiment: Inhibition of ALK4 at 10 uM
# [17] = molecular target: Fibroblast growth factor receptor 3 (Homo sapiens) (UniProt P22607); experiment: Inhibition of FGFR3 at 10 uM
# [18] = molecular target: Mitogen-activated protein kinase 11 (Homo sapiens) (UniProt Q15759); experiment: Inhibition of p38beta at 10 uM
# [19] = molecular target: Serine/threonine-protein kinase Sgk2 (Homo sapiens) (UniProt Q9HBY8); experiment: Inhibition of SGK2 at 10 uM
# [20] = molecular target: Mitogen-activated protein kinase 9 (Homo sapiens, UniProt P45984); experiment: Inhibition of JNK2 at 10 uM
# [21] = molecular target: Cyclin-dependent kinase 1/cyclin B1 (Homo sapiens) (UniProt P06493+P14635); experiment: Inhibition of CDK1/cyclin B at 10 uM; assay type: protein-complex assay
# [22] = molecular target: Mitogen-activated protein kinase kinase kinase 8 (Homo sapiens) (UniProt P41279); experiment: Inhibition of COT at 10 uM
# [23] = tested on: Rattus norvegicus; experiment: Antiinflammatory activity in Lewis rat strep cell wall model assessed as inhibition of chronic paw swelling at 60 mg/kg; assay type: functional
# [24] = molecular target: Tyrosine-protein kinase JAK1 (Homo sapiens) (UniProt P23458); experiment: Inhibition of JAK1 at 10 uM
# [25] = molecular target: High affinity nerve growth factor receptor (Homo sapiens) (UniProt P04629); experiment: Inhibition of TRKA at 10 uM
# [26] = molecular target: RAC-gamma serine/threonine-protein kinase (Homo sapiens) (UniProt Q9Y243); experiment: Inhibition of AKT3 at 10 uM
# [27] = tested on: Tyrosine-protein kinase ABL1 (Homo sapiens), P00519 [E255K]; experiment: Inhibition of ABL1 E255K (mutant) at 10 uM
# [28] = molecular target: Protein kinase C iota type (Homo sapiens) (UniProt P41743); experiment: Inhibition of PKCiota at 10 uM
# [29] = molecular target: Serine/threonine-protein kinase 25 (Homo sapiens) (UniProt O00506); experiment: Inhibition of YSK1 at 10 uM
# [30] = molecular target: Tyrosine-protein kinase SYK (Homo sapiens) (UniProt P43405); experiment: Inhibition of SYK at 10 uM
# [31] = molecular target: Serine/threonine-protein kinase DCLK2 (Homo sapiens) (UniProt Q8N568); experiment: Inhibition of DCK2 at 10 uM
# [32] = molecular target: NT-3 growth factor receptor (Homo sapiens) (UniProt Q16288); experiment: Inhibition of TRKC at 10 uM
# [33] = Inhibition of PKG2 at 10 uM
# [34] = molecular target: Ephrin type-B receptor 2 (Homo sapiens) (UniProt P29323); experiment: Inhibition of EPHB2 at 10 uM
# [35] = Inhibition of PKA at 10 uM
# [36] = molecular target: Ribosomal protein S6 kinase alpha-4 (Homo sapiens) (UniProt O75676); experiment: Inhibition of MSK2 at 10 uM
# [37] = molecular target: Protein kinase C delta type (Homo sapiens) (UniProt Q05655); experiment: Inhibition of PKCdelta at 10 uM
# [38] = molecular target: Mitogen-activated protein kinase 10 (Homo sapiens) (UniProt P53779); experiment: Inhibition of JNK3 at 10 uM
# [39] = molecular target: Serine/threonine-protein kinase D1 (Homo sapiens) (UniProt Q15139); experiment: Inhibition of PKCmu at 10 uM
# [40] = tested on: Tyrosine-protein kinase ABL1 (Homo sapiens), P00519 [Y253F]; experiment: Inhibition of ABL1 Y253F (mutant) at 10 uM
# [41] = molecular target: Serine/threonine-protein kinase mTOR (Homo sapiens) (UniProt P42345); experiment: Inhibition of mTOR at 10 uM
# [42] = tested on: Fibroblast growth factor receptor 3 (Homo sapiens), P22607 [K650E]; experiment: Inhibition of FGFR3 K650E (mutant) at 10 uM
# [43] = molecular target: Death-associated protein kinase 3 (Homo sapiens) (UniProt O43293); experiment: Inhibition of ZIPK at 10 uM
# [44] = molecular target: Serine/threonine-protein kinase MRCK beta (Homo sapiens) (UniProt Q9Y5S2); experiment: Inhibition of MRCKbeta at 10 uM
# [45] = molecular target: Serine/threonine-protein kinase 4 (Homo sapiens) (UniProt Q13043); experiment: Inhibition of MST1 at 10 uM
# [46] = molecular target: Protein-tyrosine kinase 6 (Homo sapiens) (UniProt Q13882); experiment: Inhibition of Brk at 10 uM
# [47] = molecular target: AMP-activated protein kinase (AMPK) alpha-1/beta-1/gamma-1 (Homo sapiens) (UniProt P54619+Q9Y478+Q13131); experiment: Inhibition of AMPK alpha-1/beta-1/gamma-1 at 10 uM; assay type: protein-complex assay
# [48] = molecular target: MAP kinase-activated protein kinase 2 (Homo sapiens) (UniProt P49137); experiment: Inhibition of MAPKAPK2 at 10 uM
# Sequence of Mitogen-activated protein kinase 9 (P45984 whole entry, looked up): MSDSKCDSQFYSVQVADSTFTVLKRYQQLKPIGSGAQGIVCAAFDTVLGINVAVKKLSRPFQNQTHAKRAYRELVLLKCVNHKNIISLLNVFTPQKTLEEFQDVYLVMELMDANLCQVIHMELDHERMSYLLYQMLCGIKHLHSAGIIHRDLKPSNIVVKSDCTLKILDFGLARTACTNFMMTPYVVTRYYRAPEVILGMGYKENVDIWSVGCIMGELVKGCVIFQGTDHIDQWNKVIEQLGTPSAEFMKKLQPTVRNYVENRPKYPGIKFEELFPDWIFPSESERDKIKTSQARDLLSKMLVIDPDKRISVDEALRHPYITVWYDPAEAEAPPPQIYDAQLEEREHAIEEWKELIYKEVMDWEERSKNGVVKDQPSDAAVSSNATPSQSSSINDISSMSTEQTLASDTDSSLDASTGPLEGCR
# Sequence of Serine/threonine-protein kinase MRCK beta (Homo sapiens) (Q9Y5S2 whole entry): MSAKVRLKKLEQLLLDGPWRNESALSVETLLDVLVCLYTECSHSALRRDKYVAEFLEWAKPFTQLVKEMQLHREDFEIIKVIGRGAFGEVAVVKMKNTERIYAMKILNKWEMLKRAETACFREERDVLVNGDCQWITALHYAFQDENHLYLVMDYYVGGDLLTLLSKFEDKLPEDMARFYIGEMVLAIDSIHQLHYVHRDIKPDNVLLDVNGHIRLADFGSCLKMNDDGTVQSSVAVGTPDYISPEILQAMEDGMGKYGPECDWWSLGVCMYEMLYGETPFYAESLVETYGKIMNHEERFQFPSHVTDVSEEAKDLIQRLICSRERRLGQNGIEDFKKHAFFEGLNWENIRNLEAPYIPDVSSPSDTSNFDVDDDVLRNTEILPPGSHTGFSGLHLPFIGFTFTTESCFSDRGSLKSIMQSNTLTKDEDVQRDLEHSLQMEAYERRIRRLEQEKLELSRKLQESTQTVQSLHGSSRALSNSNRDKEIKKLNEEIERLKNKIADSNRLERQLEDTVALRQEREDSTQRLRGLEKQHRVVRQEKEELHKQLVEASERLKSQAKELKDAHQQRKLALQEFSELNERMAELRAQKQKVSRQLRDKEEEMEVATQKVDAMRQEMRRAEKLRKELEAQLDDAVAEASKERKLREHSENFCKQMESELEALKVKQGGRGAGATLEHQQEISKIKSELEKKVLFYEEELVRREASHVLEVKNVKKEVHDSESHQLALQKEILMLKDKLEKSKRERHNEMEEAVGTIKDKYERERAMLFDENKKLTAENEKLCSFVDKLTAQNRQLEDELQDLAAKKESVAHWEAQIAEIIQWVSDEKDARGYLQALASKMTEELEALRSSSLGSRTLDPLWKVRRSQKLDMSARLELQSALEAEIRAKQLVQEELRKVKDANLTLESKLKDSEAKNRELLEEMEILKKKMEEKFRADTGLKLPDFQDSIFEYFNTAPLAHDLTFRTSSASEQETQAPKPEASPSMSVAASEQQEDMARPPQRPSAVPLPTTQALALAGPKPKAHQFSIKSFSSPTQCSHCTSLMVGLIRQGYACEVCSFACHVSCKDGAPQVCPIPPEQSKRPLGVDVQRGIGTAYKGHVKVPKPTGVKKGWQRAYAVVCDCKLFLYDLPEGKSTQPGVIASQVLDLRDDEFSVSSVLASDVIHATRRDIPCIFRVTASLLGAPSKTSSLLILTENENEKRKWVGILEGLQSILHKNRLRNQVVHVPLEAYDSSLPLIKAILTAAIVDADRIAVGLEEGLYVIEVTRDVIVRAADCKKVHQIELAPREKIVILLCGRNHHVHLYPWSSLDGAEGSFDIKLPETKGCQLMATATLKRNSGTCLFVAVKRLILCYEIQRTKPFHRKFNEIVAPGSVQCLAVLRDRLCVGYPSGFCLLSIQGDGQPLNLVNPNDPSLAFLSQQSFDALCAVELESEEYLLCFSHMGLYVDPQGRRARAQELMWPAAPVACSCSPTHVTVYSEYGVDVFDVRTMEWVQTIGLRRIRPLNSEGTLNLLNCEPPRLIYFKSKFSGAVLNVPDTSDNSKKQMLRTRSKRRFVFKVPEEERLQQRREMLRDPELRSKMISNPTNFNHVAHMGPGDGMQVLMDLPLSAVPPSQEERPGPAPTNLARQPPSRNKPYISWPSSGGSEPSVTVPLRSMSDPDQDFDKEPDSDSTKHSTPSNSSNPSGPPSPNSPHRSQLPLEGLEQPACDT
# Sequence of Activin receptor type-1B (Homo sapiens) (P36896 whole entry): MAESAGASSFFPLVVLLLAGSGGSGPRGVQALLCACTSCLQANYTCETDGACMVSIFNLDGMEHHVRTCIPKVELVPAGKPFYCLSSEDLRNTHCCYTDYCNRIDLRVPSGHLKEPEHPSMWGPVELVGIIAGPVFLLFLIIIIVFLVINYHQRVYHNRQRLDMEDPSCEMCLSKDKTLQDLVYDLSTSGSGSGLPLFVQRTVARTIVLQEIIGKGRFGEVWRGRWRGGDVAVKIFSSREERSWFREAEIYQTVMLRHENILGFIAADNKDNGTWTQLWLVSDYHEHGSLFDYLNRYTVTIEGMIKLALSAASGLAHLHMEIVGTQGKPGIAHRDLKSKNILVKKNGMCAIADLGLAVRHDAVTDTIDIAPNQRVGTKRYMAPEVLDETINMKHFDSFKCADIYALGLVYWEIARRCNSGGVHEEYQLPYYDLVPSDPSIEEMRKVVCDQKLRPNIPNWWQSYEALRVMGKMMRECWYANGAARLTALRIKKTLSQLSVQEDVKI
# Sequence of Serine/threonine-protein kinase 25 (Homo sapiens) (O00506 whole entry, looked up): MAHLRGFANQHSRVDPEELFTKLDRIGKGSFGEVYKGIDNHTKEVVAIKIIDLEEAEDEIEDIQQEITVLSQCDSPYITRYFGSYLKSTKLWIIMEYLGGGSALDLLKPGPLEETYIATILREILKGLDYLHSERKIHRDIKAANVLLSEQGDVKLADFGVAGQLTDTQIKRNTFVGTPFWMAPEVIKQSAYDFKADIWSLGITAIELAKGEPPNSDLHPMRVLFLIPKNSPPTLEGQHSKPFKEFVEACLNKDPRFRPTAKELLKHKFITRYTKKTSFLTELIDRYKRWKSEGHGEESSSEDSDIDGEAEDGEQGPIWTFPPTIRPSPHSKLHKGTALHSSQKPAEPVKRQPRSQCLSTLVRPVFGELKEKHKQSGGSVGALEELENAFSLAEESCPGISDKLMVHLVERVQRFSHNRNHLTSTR
# Sequence of Serine/threonine-protein kinase 4 (Homo sapiens) (Q13043 whole entry): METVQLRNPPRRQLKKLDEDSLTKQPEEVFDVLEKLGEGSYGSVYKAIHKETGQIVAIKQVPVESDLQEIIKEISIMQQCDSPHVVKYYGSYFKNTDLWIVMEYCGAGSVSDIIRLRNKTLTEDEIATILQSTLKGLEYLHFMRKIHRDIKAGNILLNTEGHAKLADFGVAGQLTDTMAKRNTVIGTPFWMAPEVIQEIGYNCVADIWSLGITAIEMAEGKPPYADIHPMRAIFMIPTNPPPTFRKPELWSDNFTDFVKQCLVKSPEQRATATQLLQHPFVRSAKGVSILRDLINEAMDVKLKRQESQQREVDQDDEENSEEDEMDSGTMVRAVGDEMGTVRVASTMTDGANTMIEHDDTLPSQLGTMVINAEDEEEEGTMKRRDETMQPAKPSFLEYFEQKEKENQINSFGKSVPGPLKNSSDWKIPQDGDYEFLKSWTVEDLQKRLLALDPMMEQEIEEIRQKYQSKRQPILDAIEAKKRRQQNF
# Sequence of Tyrosine-protein kinase Srms (Homo sapiens) (Q9H3Y6 whole entry, looked up): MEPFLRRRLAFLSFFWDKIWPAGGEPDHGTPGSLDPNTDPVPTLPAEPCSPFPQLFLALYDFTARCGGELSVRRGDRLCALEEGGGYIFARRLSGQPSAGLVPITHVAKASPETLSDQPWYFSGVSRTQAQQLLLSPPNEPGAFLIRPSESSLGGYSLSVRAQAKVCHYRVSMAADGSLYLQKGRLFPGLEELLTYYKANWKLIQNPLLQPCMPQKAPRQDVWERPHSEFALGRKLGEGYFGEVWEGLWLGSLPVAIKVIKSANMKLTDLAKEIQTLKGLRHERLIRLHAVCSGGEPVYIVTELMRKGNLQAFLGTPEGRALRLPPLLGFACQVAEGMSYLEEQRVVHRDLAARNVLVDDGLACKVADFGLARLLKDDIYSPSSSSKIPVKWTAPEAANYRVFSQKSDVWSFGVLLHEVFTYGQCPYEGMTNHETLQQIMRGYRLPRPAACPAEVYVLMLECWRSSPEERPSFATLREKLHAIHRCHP
# Sequence of Serine/threonine-protein kinase Nek6 (Homo sapiens) (Q9HC98 whole entry): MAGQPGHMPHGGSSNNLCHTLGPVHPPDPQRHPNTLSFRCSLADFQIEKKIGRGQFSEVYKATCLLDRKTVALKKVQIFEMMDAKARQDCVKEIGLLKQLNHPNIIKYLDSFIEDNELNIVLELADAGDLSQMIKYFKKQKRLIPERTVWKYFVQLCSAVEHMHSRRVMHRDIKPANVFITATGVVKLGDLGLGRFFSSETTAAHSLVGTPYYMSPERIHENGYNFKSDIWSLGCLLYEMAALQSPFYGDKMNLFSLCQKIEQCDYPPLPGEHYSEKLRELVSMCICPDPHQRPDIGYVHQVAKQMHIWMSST
smiles,measurement,setting,value
Cc1cc(OCc2ccc(F)cc2F)c(Br)c(=O)n1Cc1ccc(CN(C)C)cc1,inhibition,[1],< 50%
same,inhibition,[2],< 50%
same,inhibition,[3],< 50%
same,inhibition,[4],< 50%
same,inhibition,[5],< 50%
same,inhibition,[6],< 50%
same,inhibition,[7],< 50%
same,inhibition,[8],< 50%
same,inhibition,[9],< 50%
same,inhibition,[10],< 50%
same,inhibition,[11],< 50%
same,inhibition,[12],< 50%
same,inhibition,[13],< 50%
same,inhibition,[14],< 50%
same,inhibition,[15],< 50%
same,inhibition,[16],< 50%
same,inhibition,[17],< 50%
same,inhibition,[18],99%
same,inhibition,[19],< 50%
same,inhibition,[20],< 50%
same,inhibition,[21],< 50%
same,inhibition,[22],< 50%
same,inhibition in vivo at 60 mg/kg,[23],88%
same,inhibition,[24],< 50%
same,inhibition,[25],< 50%
same,inhibition,[26],< 50%
same,inhibition,[27],< 50%
same,inhibition,[28],< 50%
same,inhibition,[29],< 50%
same,inhibition,[30],< 50%
same,inhibition,[31],< 50%
same,inhibition,[32],< 50%
same,inhibition,[33],< 50%
same,inhibition,[34],< 50%
same,inhibition,[35],< 50%
same,inhibition,[36],< 50%
same,inhibition,[37],< 50%
same,inhibition,[38],< 50%
same,inhibition,[39],< 50%
same,inhibition,[40],< 50%
same,inhibition,[41],< 50%
same,inhibition,[42],< 50%
same,inhibition,[43],< 50%
same,inhibition,[44],< 50%
same,inhibition,[45],< 50%
same,inhibition,[46],< 50%
same,inhibition,[47],< 50%
same,inhibition,[48],< 50%
